Measurements reported in patent publication US10588317B2, “Isoxazoline-substituted benzamides and analogues as insecticides” (priority 2015, dated 2020).

Key:
Type in all cases: in vivo
[1] = test system: Diabrotica balteata; experiment: Diabrotica balteata (corn root worm), sprayed maize sprouts; details: 96 h, application rate 200 ppm, L2 larvae, 4 days after infestation, read-out: effect in at least one of the two categories (mortality or growth inhibition)
How it was run: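 Read-out at 4 days post-infestation: mortality and growth inhibition relative to untreated samples. Test solutions (200 ppm, from DMSO stocks) were sprayed onto agar-held maize sprouts, which after drying received 6–10 L2 larvae per well.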

[2] = test system: Euschistus heros; experiment: Euschistus heros (neotropical brown stink bug), sprayed soybean leaves; details: 120 h, application rate 200 ppm, N2 nymphs, 5 days after infestation, read-out: effect in at least one of the two categories (mortality or growth inhibition)
How it was run: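 Scored 5 days post-infestation versus untreated controls, for both mortality and growth inhibition: N2 nymphs placed on agar-mounted soybean leaves previously sprayed at 200 ppm with aqueous test solutions from DMSO stocks and left to dry.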

[3] = test system: Myzus persicae; experiment: Myzus persicae (green peach aphid): feeding/contact activity; details: 144 h, application rate 200 ppm, aphid population of mixed ages, 6 days after infestation, read-out: mortality
Experimental: Sunflower leaf discs were placed onto agar in a 24-well microtiter plate and sprayed with aqueous test solutions prepared from 10'000 ppm DMSO stock solutions. After drying, the leaf discs were infested with an aphid population of mixed ages. The samples were assessed for mortality 6 days after infestation.

[4] = test system: Plutella xylostella; experiment: Plutella xylostella (diamond back moth), artificial diet; details: 120 h, application rate 200 ppm, L2 larvae, 5 days after infestation, read-out: effect in at least one of the two categories (mortality or growth inhibition)
How it was run: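 L2 larvae (10-15 per well) fed on compound-treated, dried artificial diet; test solutions diluted in water from 10'000 ppm DMSO stocks. Readout 5 days post-infestation as mortality or growth inhibition versus untreated diet, with at least 80% effect at 200 ppm as threshold.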

[5] = test system: Spodoptera littoralis; experiment: Spodoptera littoralis (Egyptian cotton leaf worm), sprayed cotton leaf discs; details: foliar, 72 h, application rate 200 ppm, L1 larvae, 3 days after infestation, read-out: control (mortality, anti-feeding effect, growth inhibition)
How it was run: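 Five first-instar larvae placed on dried cotton leaf discs (on agar) previously sprayed with aqueous dilutions of 10'000 ppm DMSO stocks. Scored at 3 days against untreated discs for mortality, feeding inhibition and growth inhibition; any category above untreated counts as control.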

[6] = test system: Spodoptera littoralis; experiment: Spodoptera littoralis (Egyptian cotton leaf worm), uptake by lettuce roots from agar; details: 144 h, read-out: effect in at least one of the three categories (mortality, anti-feeding, or growth inhibition);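 note: 12.5 ppm test rate in agar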
How it was run: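 Systemic test: Spodoptera eggs placed on lettuce leaves from seedlings raised 7 days on agar containing the compound (diluted from 10'000 ppm DMSO stock). Six days after infestation, larvae scored against untreated controls for mortality, feeding deterrence and growth inhibition.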

[7] = test system: Tetranychus urticae; experiment: Tetranychus urticae (two-spotted spider mite): feeding/contact activity; details: 192 h, application rate 200 ppm, mixed population (mobile stages), 8 days after infestation, read-out: mortality
Experimental: Bean leaf discs on agar in 24-well microtiter plates were sprayed with aqueous test solutions prepared from 10'000 ppm DMSO stock solutions. After drying the leaf discs were infested with a mite population of mixed ages. The samples were assessed for mortality on mixed population (mobile stages) 8 days after infestation.

[8] = test system: Thrips tabaci; experiment: Thrips tabaci (onion thrips): feeding/contact activity; details: 144 h, application rate 200 ppm, Thrips population of mixed ages, 6 days after infestation, read-out: mortality
Experimental: Sunflower leaf discs were placed on agar in 24-well microtiter plates and sprayed with aqueous test solutions prepared from 10'000 ppm DMSO stock solutions. After drying the leaf discs were infested with a Thrips population of mixed ages. The samples were assessed for mortality 6 days after infestation.

CCS(=O)(=O)N1CC(NC(=O)c2ccc(C3=NO[C@@](c4cc(Cl)c(Cl)c(Cl)c4)(C(F)(F)F)C3)cc2C)CO1 (stereo partly drawn) [Compound A27, N-(2-ethylsulfonylisoxazolidin-4-yl)-2-methyl-4-[(5S)-5-(3,4,5-trichlorophenyl)-5-(trifluoromethyl)-4H-isoxazol-3-yl]benzamide]
≥ 80%: percent effect (mortality or growth inhibition) at 200 ppm [1] | percent effect (mortality or growth inhibition) at 200 ppm [2] | mortality at 200 ppm [3] | percent effect (mortality or growth inhibition) at 200 ppm [4] | mortality at 200 ppm [5] | percent control (mortality, anti-feedant effect or growth inhibition) at 12.5 ppm [6] | mortality at 200 ppm [7] | mortality at 200 ppm [8]

Cc1cc(C2=NO[C@@](c3cc(Cl)c(Cl)c(Cl)c3)(C(F)(F)F)C2)ccc1C(=O)NC1CON(S(N)(=O)=O)C1 (stereo partly drawn) [Compound A35]
≥ 80%: percent effect (mortality or growth inhibition) at 200 ppm [1] | percent effect (mortality or growth inhibition) at 200 ppm [2] | mortality at 200 ppm [3] | percent effect (mortality or growth inhibition) at 200 ppm [4] | mortality at 200 ppm [5] | percent control (mortality, anti-feedant effect or growth inhibition) at 12.5 ppm [6] | mortality at 200 ppm [7] | mortality at 200 ppm [8]

CCNS(=O)(=O)N1C[C@@H](NC(=O)c2ccc(C3=NO[C@@](c4cc(Cl)cc(Cl)c4)(C(F)(F)F)C3)cc2Cl)CO1 [Compound A113, 2-chloro-4-[(5S)-5-(3,5-dichlorophenyl)-5-(trifluoromethyl)-4H-isoxazol-3-yl]-N-[(4R)-2-(ethylsulfamoyl)isoxazolidin-4-yl]benzamide]
≥ 80%: percent effect (mortality or growth inhibition) at 200 ppm [1] | percent effect (mortality or growth inhibition) at 200 ppm [2] | mortality at 200 ppm [3] | percent effect (mortality or growth inhibition) at 200 ppm [4] | mortality at 200 ppm [5] | percent control (mortality, anti-feedant effect or growth inhibition) at 12.5 ppm [6] | mortality at 200 ppm [7] | mortality at 200 ppm [8]

Cc1cc(C2=NOC(c3cc(C(F)(F)F)cc(C(F)(F)F)c3)(C(F)(F)F)C2)ccc1C(=O)NC1CON(S(C)(=O)=O)C1 (stereo not drawn) [Compound A59]
≥ 80%: percent effect (mortality or growth inhibition) at 200 ppm [1] | percent effect (mortality or growth inhibition) at 200 ppm [2] | mortality at 200 ppm [3] | percent effect (mortality or growth inhibition) at 200 ppm [4] | mortality at 200 ppm [5] | percent control (mortality, anti-feedant effect or growth inhibition) at 12.5 ppm [6] | mortality at 200 ppm [7] | mortality at 200 ppm [8]

CCNS(=O)(=O)N1C[C@@H](NC(=O)c2ccc(C3=NO[C@@](c4cc(Cl)cc(C(F)(F)F)c4)(C(F)(F)F)C3)cc2C)CO1 [Compound A134]
≥ 80%: percent effect (mortality or growth inhibition) at 200 ppm [1] | percent effect (mortality or growth inhibition) at 200 ppm [2] | mortality at 200 ppm [3] | percent effect (mortality or growth inhibition) at 200 ppm [4] | mortality at 200 ppm [5] | percent control (mortality, anti-feedant effect or growth inhibition) at 12.5 ppm [6] | mortality at 200 ppm [7] | mortality at 200 ppm [8]

Cc1cc(C2=NOC(c3cc(Cl)cc(C(F)(F)F)c3)(C(F)(F)F)C2)ccc1C(=O)NC1CON(S(C)(=O)=O)C1 (stereo not drawn) [Compound A62]
≥ 80%: percent effect (mortality or growth inhibition) at 200 ppm [1] | percent effect (mortality or growth inhibition) at 200 ppm [2] | mortality at 200 ppm [3] | percent effect (mortality or growth inhibition) at 200 ppm [4] | mortality at 200 ppm [5] | percent control (mortality, anti-feedant effect or growth inhibition) at 12.5 ppm [6] | mortality at 200 ppm [7] | mortality at 200 ppm [8]
